These results are taken from US20150258106A1, “METHODS FOR ACUTE AND LONG-TERM TREATMENT OF SUBSTANCE ABUSE” (DEMERX, INC., priority 2014, published 2015).

The series is described as follows: Pharmacokinetics of noribogaine in healthy volunteers, ascending single oral dose (plasma noribogaine and noribogaine glucuronide). The conditions noted are these: for AUC0-216 / AUC0-∞ / Cmax / Tmax / t1/2: healthy male volunteers, n = 6, mean (SD).
Where [1] appears, read: glucuronide in plasma after single oral 30 mg noribogaine dose.
Where [2] appears, read: glucuronide in plasma after single oral 60 mg noribogaine dose.
Where [3] appears, read: plasma noribogaine glucuronide, 30 mg and 60 mg dose groups.

Regarding `CC[C@H]1C[C@@H]2C[C@H]3c4[nH]c5ccc(OC6OC(C(=O)O)C(O)C(O)C6O)cc5c4CCN(C2)[C@@H]13` (some centres unmarked) [Noribogaine glucuronide, noribogaine glucuronide], for the setting “both dose groups (30 mg, 60 mg)”, the “proportion of noribogaine glucuronide Cmax and AUC relative to noribogaine” value is recorded as 3-4%. Besides, under setting [1], the AUC0-216 is 25.7 (9.1) ng · hr/ml, the “AUC0-∞” value is recorded as 25.8 (9.3) ng · hr/ml, the Cmax is 1.8 (0.6) ng/ml and the Tmax is given as 3.0 (0.6) hr. The t1/2 under setting [1] is reported as 20.6 (4.9) hr. Besides, under setting [2], the AUC0-216 is given as 65.0 (21.5) ng · hr/ml, the “AUC0-∞” value is 67.1 (21.9) ng · hr/ml, the Cmax is given as 4.1 (1.2) ng/ml and the Tmax is given as 3.8 (1.2) hr. In addition, the t1/2 under setting [2] is given as 23.1 (3.0) hr. In addition, under setting [3], the Mean half-life lay in the range of 21 to 23 h and the “time of peak concentrations after noribogaine dosing” value lay in the range of 3 to 4 h. Besides, the “time by which noribogaine glucuronide was detected in all subjects” value (plasma, after 30 mg or 60 mg noribogaine dose) was not above 0.75 h.
